Experimental data reported in PMC8528301 (PLoS ONE, 2021).
Read-outs that look alike come from different tables or passages of the source.

Assays:
[1] = serum
Description: (§1) To generate VD3 deficient and sufficient mice, day 4–5 estrus (E5-E6) pregnant C57BL/6J female mice from Jackson Laboratories (Bar Harbor, ME) were kept on the VD3 deficient (Harlan catalog no. 5A69, 0 IU of vitamin D) and VD3 sufficient diets, (catalog. No. 5BV8, 3.3 IU of vitamin D) to develop vitamin D deficient and vitamin D sufficient mice, respectively. Pregnant dams were maintained on these diets throughout pregnancy, and after parturition, and pups were maintained on the corresponding diets after weaning as described in [16]. The pups were age matched and both male and female, VD3 deficient and VD3 sufficient mice were used for Cyp3a expression, pharmacokinetic and efficacy studies.
To observe the effect of vitamin D status on hCYP3A4 expression, cryopreserved hCYP3A4 transgenic (tg) mouse sperm was used to re-derive the humanized CYP3A4 transgenic mouse model. Human CYP3A4 transgenic mice were obtained from the laboratory of Dr. Frank Gonzalez (Laboratory of Metabolism, Center for Cancer Research, National Cancer Institute, National Institutes of Health, Bethesda). To generate hCYP3A4-Tg VD3 deficient and sufficient mice, E5-E6 hCYP3A4-Tg pregnant female mice were kept on VD3 deficient and VD3 sufficient diets throughout pregnancy and after parturition as described for C57BL/6J mice above. Pups were maintained on the corresponding diets after weaning and were euthanized at 12 weeks of age for tissue collection, blood was collected by cardiac puncture and serum was isolated and stored at -80°C. Tissues such as intestine (duodenum), liver and kidney were harvested and stored in RNA later at -20°C.
Serum samples from all animals in this manuscript were collected but only a few samples were randomly selected across studies and sent to the Veterinary Diagnostic Laboratory at Michigan State University (Lansing, MI) for serum 25-(OH) VD3 analysis.

[2] = no reference given, cited from earlier work
[3] = tested on: duodenal mCyp3a and drug efflux transporter mRNA expression; assay: qPCR of Cyp3a and efflux transporter mRNA in duodenum of VD3 sufficient vs deficient C57BL/6 mice; assay type: in vivo, mouse; conditions: n=3
Description: as §1
Mouse intestine (duodenum), liver and kidney tissues stored in RNA later at -20°C were used for RNA isolation. Trizol (Ambion Life technologies, CA, USA or Thermo Fisher scientific, CA, USA) was used to extract RNA according to the manufacturers protocol. Sterile Omni tips (OMNI International, GA, USA) were used to homogenize the tissue using Omni tissue homogenizer. 500 ng of RNA was used to generate cDNA using the Thermoscript™ RT-PCR system (Invitrogen ThermoFisher, CA, USA). The cDNA was diluted to a total volume of 70 μL. Primers used for the amplification: […]
Real-time PCR quantification was performed using SYBR GreenER™ qPCR supermix for ABI PRISM Instrument (Life Technologies, Grand Island, NY) according to manufacturer’s instructions. Samples were run at the following conditions: 95°C for 15 min, 40 cycles of 92°C for 30 sec, 60°C for 30 sec, 68°C for 1 min followed by a dissociation step. The relative amounts of mRNAs in each sample were normalized to Villin or Gapdh for intestine samples or Gapdh values for liver and kidney samples to control for quality of the mRNA. Comparative CT (ΔΔCt) method was used to determine quantitative PCR values.
Fig 1 Cyp and transporter gene expression in duodenum of VD3 sufficient and deficient mice. Influence of VD3 deficiency on duodenal mCyp3a11, mCyp3a13, mCyp3a44 (A,B) and drug efflux transporter mRNA expression (C,D) in 12 wk old C57BL/6 mice (A, C)) and hCYP3A4-tg mice (B,D) (male, n = 3 and female, n = 3/strain). Data are expressed as mean (bars) + SD (error bars) fold change in mRNA expression in deficient mice relative to each mRNAs expression in sufficient mice set as one. Villin was used as an internal control to normalize the target gene expression data. Mann-Whitney nonparametric test on GraphPad was used to determine significance between the groups (**p<0.01, *p<0.05).

[4] = female C57BL/6, VD3 deficient vs sufficient = 1, Villin
[5] = male C57BL/6, VD3 deficient vs sufficient = 1, Villin

Question: For `C=C1CC[C@H](O)C/C1=C/C=C1\CCC[C@]2(C)[C@@H]([C@H](C)CCCC(C)(C)O)CC[C@@H]12` [25-(OH) VD3], which “Mean (25-(OH) VD3” value ([1]; C57BL/6, VD3 Deficient, n=6) is on record?
Answer: Its value is 12 nmol/L.

Question: And the “Mean (25-(OH) VD3” value ([1]; C57BL/6, VD3 Sufficient, n=2)?
Answer: The value was 324.50 nmol/L.

Question: What about the “Mean (25-(OH) VD3” value ([1]; hCYP3A4-tg, VD3 Deficient, n=4) of the same compound?
Answer: The value was 14.75 nmol/L.

Question: And the “Mean (25-(OH) VD3” value ([1]; hCYP3A4-tg, VD3 Sufficient, n=4)?
Answer: Its value is 219 nmol/L.

Question: What about the half-life ([2]; serum 25(OH)VD3) of the same compound?
Answer: Its half-life is 15 days.

Question: For `C=C1CC[C@H](O)C/C1=C/C=C1\CCC[C@]2(C)[C@@H]([C@H](C)CCCC(C)C)CC[C@@H]12` [VD3, Vitamin D3], which “avg fold chnge Cyp3a11 mRNA” value [3, 4] is on record?
Answer: Its value is 0.2614 fold.

Question: And the “avg fold chnge cyp3a13 mRNA” value [3, 4]?
Answer: Its value is 0.2206 fold.

Question: What about the “avg fold chnge cyp3a25 mRNA” value [3, 4] of the same compound?
Answer: Its value is 1.068 fold.

Question: What about the “avg fold chnge cyp3a44 mRNA” value [3, 4] of the same compound?
Answer: Its value is 0.139 fold.

Question: And the “avg fold change Cyp3a11 mRNA” value ([3]; male C57BL/6, VD3 deficient (GCD) vs VD3 sufficient = 1, normalised to Villin)?
Answer: Its value is 0.299 fold.

Question: And the “avg fold change Cyp3a13 mRNA” value [3, 5]?
Answer: Its value is 0.1229 fold.

Question: What about the “avg fold change Cyp3a25 mRNA” value [3, 5] of the same compound?
Answer: Its value is 0.2366 fold.

Question: What about the “avg fold change Cyp3a41 mRNA” value [3, 5] of the same compound?
Answer: The value was 0.2185 fold.

Question: What about the “avg fold change Cyp3a44 mRNA” value [3, 5] of the same compound?
Answer: Its value is 0.1467 fold.

Question: And the “avg fold change bcrp mRNA” value [3, 5]?
Answer: Its value is 0.5071 fold.

Question: What about the “avg fold change mPXR mRNA” value [3, 5] of the same compound?
Answer: Its value is 0.5697 fold.

Question: What about the “avg fold change mVDR mRNA” value [3, 5] of the same compound?
Answer: The value was 0.3209 fold.

Question: What about the “avg fold change mdr1a mRNA” value [3, 5] of the same compound?
Answer: The value was 0.5457 fold.

Question: For `C=C1/C(=C\C=C2/CCC[C@]3(C)[C@@H]([C@H](C)CCCC(C)(C)O)CC[C@@H]23)C[C@@H](O)C[C@@H]1O` [1,25 (OH)2 VD3], which half-life ([2]; serum 1,25 (OH)2 VD3, biologically short lived) is on record?
Answer: Its half-life is ~ 15 hours.
